Legend:
[1] = biological target: T1, 5-hydroxytryptamine receptor 1A (Homo sapiens, UniProt P08908); test: Displacement of [3H]8-OH-DPAT from human recombinant 5HT1A receptor expressed in HEK293-EBNA cells; assay type: cell-based
T1 sequence (P08908 whole entry): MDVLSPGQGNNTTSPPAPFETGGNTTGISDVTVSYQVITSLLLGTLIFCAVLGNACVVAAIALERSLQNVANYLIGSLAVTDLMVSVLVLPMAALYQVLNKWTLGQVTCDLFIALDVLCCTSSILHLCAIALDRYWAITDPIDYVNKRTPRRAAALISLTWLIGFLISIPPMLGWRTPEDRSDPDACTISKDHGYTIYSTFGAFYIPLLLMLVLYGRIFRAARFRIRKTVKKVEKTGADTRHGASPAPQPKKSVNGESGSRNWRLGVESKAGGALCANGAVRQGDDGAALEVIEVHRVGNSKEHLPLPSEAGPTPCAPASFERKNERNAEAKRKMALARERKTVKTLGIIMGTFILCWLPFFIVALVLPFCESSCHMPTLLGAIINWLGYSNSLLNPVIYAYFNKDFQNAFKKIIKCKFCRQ

[2] = biological target: 5-hydroxytryptamine receptor 1D (Homo sapiens, UniProt P28221); test: Displacement of [3H]LSD from human recombinant 5HT1D receptor expressed in HEK293-EBNA cells; assay type: cell-based
[3] = biological target: T2, 5-hydroxytryptamine receptor 2C (Homo sapiens, UniProt P28335); test: Displacement of [3H]mesulergine from human recombinant 5HT2C receptor expressed in HEK293-EBNA cells; assay type: cell-based
T2 sequence (P28335 whole entry): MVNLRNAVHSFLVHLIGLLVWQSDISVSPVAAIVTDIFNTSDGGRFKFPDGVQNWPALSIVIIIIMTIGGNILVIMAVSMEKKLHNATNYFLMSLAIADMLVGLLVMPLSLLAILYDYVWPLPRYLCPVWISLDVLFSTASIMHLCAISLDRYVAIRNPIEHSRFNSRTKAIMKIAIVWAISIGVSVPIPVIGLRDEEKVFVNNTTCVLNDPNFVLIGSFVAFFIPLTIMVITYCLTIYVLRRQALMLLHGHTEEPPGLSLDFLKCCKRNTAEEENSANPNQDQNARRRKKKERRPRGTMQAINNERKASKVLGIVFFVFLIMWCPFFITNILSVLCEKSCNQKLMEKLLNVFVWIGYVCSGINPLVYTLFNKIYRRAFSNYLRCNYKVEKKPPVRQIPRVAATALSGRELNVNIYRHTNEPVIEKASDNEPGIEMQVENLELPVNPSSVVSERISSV

[4] = biological target: 5-hydroxytryptamine receptor 7 (Homo sapiens, UniProt P34969); test: Displacement of [3H]LSD from human recombinant 5HT7 receptor expressed in HEK293-EBNA cells; assay type: cell-based
Homo sapiens [5] = species on record: Homo sapiens; test: Selectivity for human recombinant 5HT5A receptor over human recombinant 5HT2A receptor
Homo sapiens [6] = species on record: Homo sapiens; test: Selectivity for human recombinant 5HT5A receptor over human 5HT3 receptor
Homo sapiens [7] = species on record: Homo sapiens; test: Selectivity for human recombinant 5HT5A receptor over human recombinant 5HT6 receptor
[8] = biological target: T3, 5-hydroxytryptamine receptor 5A (Homo sapiens, UniProt P47898); test: Antagonist activity at human recombinant 5HT5A receptor expressed in HEK293-EBNA cells by [35S]GTP-gamma-S binding assay; assay type: functional, cell-based
[9] = biological target: T3, 5-hydroxytryptamine receptor 5A; test: Displacement of [3H]LSD from human recombinant 5HT5A receptor expressed in HEK293-EBNA cells; assay type: cell-based
[10] = biological target: 5-hydroxytryptamine receptor 2A (Homo sapiens, UniProt P28223); test: Displacement of [3H]ketanserin from human recombinant 5HT2A receptor expressed in HEK293-EBNA cells; assay type: cell-based
[11] = biological target: T4, 5-hydroxytryptamine receptor 3A (Homo sapiens, UniProt P46098); test: Binding affinity to human 5HT3 receptor
T4 sequence (P46098 whole entry): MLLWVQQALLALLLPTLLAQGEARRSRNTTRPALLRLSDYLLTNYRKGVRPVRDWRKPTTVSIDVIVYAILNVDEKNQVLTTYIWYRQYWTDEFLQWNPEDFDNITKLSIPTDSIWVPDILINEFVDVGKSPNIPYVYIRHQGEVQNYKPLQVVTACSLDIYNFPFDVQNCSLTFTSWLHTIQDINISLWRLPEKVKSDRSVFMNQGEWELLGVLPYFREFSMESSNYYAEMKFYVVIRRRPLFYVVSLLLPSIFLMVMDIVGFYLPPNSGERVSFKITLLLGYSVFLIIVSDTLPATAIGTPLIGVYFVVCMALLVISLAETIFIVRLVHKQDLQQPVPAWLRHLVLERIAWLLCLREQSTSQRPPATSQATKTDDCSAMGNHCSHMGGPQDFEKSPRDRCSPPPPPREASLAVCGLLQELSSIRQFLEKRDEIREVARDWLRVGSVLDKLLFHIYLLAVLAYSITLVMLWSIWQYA

[12] = biological target: 5-hydroxytryptamine receptor 6 (Homo sapiens, UniProt P50406); test: Displacement of [3H]LSD from human recombinant 5HT6 receptor expressed in HEK293-EBNA cells; assay type: cell-based
Histamine H1 receptor = Histamine H1 receptor (Homo sapiens, UniProt P35367); test: Binding affinity to histamine H1 receptor
Homo sapiens [13] = species on record: Homo sapiens; test: Selectivity for human recombinant 5HT5A receptor over human recombinant 5HT1D receptor
[14] = Protein binding in mouse plasma; assay type: ADME, cell-free; settings: read-out: PPB (converted)
[15] = Inhibition of adrenergic alpha-1 receptor at 1 uM
[16] = Inhibition of adrenergic alpha-2 receptor
[17] = biological target: T5, 5-hydroxytryptamine receptor 2B (Homo sapiens, UniProt P41595); test: Inhibition of 5HT2B receptor
[18] = biological target: T5, 5-hydroxytryptamine receptor 2B; settings: 1 uM
Description: Inhibition of 5HT2B receptor at 1 uM

T3 sequence (P47898 whole entry): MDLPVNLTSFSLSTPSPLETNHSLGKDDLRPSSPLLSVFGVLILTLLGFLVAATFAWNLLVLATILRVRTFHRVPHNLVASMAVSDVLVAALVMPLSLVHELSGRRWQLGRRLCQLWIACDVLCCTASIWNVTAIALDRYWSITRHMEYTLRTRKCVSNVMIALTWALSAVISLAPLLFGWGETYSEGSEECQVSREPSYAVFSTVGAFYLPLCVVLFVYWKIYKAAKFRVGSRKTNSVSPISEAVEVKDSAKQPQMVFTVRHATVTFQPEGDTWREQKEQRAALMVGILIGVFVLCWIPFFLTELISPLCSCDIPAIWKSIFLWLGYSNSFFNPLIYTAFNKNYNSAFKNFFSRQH
Chain of 5-hydroxytryptamine receptor 7 (P34969 whole entry): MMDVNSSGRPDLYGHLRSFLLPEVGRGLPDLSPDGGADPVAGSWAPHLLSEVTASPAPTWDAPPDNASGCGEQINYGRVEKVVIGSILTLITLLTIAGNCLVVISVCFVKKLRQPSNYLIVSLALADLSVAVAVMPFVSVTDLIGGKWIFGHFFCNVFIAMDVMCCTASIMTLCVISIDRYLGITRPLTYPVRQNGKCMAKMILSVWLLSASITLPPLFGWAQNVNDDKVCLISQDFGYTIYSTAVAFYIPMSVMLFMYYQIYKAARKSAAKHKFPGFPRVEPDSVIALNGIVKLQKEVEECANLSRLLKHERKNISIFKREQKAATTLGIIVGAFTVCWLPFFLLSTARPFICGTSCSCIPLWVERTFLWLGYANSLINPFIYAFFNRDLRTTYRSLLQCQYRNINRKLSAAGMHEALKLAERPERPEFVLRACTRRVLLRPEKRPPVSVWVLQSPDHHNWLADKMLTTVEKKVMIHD
Chain of 5-hydroxytryptamine receptor 1D (P28221 whole entry): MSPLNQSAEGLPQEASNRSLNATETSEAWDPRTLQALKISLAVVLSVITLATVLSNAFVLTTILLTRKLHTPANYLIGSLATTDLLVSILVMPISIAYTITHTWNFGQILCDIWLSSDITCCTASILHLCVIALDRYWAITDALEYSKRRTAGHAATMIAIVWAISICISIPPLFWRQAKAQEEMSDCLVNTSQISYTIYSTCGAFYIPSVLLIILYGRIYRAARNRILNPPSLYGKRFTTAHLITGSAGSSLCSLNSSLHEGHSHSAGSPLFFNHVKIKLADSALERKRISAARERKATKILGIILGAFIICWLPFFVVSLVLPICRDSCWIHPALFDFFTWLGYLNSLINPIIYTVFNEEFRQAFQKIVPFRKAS
T5 sequence (P41595 whole entry): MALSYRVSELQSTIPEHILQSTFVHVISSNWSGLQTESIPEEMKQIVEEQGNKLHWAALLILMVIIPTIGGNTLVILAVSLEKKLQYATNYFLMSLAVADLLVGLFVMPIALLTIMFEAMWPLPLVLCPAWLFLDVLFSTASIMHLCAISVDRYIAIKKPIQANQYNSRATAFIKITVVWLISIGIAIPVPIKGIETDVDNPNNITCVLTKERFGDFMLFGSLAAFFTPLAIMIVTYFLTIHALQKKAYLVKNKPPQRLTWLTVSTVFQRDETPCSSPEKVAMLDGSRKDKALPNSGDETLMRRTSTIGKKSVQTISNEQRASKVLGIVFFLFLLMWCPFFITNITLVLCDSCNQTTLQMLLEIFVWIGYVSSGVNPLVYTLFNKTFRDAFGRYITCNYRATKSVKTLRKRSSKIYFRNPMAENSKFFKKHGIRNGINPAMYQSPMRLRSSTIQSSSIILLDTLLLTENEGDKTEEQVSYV
Chain of 5-hydroxytryptamine receptor 2A (P28223 whole entry): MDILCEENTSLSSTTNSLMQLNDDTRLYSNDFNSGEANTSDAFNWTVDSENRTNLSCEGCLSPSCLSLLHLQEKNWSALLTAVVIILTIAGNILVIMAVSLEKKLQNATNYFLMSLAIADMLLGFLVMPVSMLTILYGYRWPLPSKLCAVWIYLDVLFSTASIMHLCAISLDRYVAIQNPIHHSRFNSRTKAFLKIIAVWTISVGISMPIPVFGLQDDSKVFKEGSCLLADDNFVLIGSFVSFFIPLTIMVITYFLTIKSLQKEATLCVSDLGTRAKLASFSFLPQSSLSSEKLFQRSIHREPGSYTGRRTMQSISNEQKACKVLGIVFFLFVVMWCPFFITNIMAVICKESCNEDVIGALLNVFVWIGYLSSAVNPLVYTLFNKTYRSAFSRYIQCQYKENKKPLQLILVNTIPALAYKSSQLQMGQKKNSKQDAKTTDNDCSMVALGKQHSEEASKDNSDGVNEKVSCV
Chain of 5-hydroxytryptamine receptor 6 (P50406 whole entry): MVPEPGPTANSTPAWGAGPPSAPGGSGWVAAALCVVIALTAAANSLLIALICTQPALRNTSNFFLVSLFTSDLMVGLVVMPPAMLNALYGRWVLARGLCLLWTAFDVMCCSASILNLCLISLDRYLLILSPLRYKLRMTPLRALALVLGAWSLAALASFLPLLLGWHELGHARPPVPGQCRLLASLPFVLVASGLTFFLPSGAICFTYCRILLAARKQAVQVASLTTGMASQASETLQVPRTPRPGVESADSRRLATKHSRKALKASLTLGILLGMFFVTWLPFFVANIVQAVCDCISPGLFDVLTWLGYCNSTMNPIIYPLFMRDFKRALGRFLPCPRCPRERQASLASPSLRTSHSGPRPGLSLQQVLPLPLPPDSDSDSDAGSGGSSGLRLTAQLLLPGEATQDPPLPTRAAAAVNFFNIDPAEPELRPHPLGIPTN
Chain of Histamine H1 receptor (P35367 whole entry): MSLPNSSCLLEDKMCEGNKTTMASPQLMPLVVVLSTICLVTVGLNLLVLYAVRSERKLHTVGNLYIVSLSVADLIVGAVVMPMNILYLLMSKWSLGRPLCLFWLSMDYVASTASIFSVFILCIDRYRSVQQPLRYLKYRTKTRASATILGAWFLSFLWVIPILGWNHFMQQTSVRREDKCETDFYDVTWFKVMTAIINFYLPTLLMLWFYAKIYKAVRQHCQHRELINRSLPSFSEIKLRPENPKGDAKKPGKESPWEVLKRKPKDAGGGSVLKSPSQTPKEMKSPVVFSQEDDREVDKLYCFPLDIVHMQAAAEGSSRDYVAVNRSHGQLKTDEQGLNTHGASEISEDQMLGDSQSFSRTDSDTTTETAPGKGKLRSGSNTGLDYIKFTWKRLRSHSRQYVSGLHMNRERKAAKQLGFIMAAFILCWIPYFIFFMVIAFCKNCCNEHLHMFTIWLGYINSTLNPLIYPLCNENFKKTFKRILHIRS

Row | Compound | Ki [1] | Ki [2] | Ki [3] | Ki [4] | Ki [9] | other results
1 | CNC1=Nc2cccc(Cl)c2C(C)N1 (stereo not given) | 389 nM | 1460 nM | 235 nM | 15.3 nM |  | Ratio Ki (Homo sapiens [5]): > 30; Ratio Ki (Homo sapiens [6]): > 30; Ratio Ki (Homo sapiens [7]): > 30; Kb [8]: 7.41 nM
2 | NC1=Nc2ccc(Cl)cc2CN1 |  |  |  |  | 807 nM | 
3 | CC1(C)NC(N)=Nc2ccccc21 |  |  |  |  | 1170 nM | 
4 | NC1=Nc2c(F)cccc2CN1 |  |  |  |  | 1990 nM | 
5 | CCC1NC(N)=Nc2ccc(Cl)c(Cl)c21 (stereo not given) | 765 nM | 1270 nM | 155 nM | 73 nM | 26.5 nM | 
6 | NC1=Nc2cccc(Cl)c2CN1 [listing 1 of 2 here] |  |  |  |  |  | Ki ([9]; hek293-ebna): 99 nM
7 | COc1ccc2c(c1)N=C(N)NC2 |  |  |  |  | 1380 nM | 
8 | Cc1ccc2c(c1)N=C(N)NC2 |  |  |  |  | 274 nM | 
9 | COc1cccc2c1N=C(N)NC2 |  |  |  |  | 97 nM | 
10 | Cc1cccc2c1N=C(N)NC2 |  |  |  |  | 463 nM | 
11 | NC1=Nc2cc(Cl)ccc2CN1 |  |  |  |  | 347 nM | 
12 | NC1=Nc2ccc(Cl)c(Cl)c2CN1 | 1080 nM | 1260 nM | 208 nM | 294 nM | 43 nM | Ki [10]: 434 nM; Ki [11]: 172 nM; Ki [12]: 1160 nM
13 | CC1NC(N)=Nc2ccc(Cl)c(Cl)c21 (stereo not given) | 181 nM | 260 nM | 26 nM | 8.7 nM |  | Ratio Ki (Homo sapiens [5]): > 30; Ratio Ki (Homo sapiens [6]): > 30; Ratio Ki (Homo sapiens [7]): > 30; Ki (Histamine H1 receptor): 8 nM
14 | NC1=Nc2cc(F)ccc2CN1 |  |  |  |  | 647 nM | 
15 | COc1c(Cl)ccc2c1C(C)NC(N)=N2 (stereo not given) | 339 nM | 1160 nM | 74 nM | 12.4 nM | 22.9 nM | 
16 | NC1=Nc2ccccc2CN1 |  |  |  |  | 658 nM | 
17 | CNC1=Nc2ccccc2CN1 |  |  |  |  | 1790 nM | 
18 | COc1cc(Cl)c(C)c2c1N=C(N)NC2C (stereo not given) | 105 nM | 143 nM | 19 nM | 2.5 nM |  | Ratio Ki (Homo sapiens [5]): > 30; Ratio Ki (Homo sapiens [6]): > 30; Ratio Ki (Homo sapiens [7]): > 30

Row | Compound | Ki [1] | Ki [2] | Ki [3] | Ki [4] | Ki [9] | other results
19 | NC1=Nc2c(Cl)cccc2CN1 |  |  |  |  | 892 nM | 
20 | CNC1=Nc2ccc(Cl)c(Cl)c2C(C)N1 (stereo not given) | 246 nM | 454 nM | 94 nM | 13.2 nM |  | Ratio Ki (Homo sapiens [5]): > 30; Ratio Ki (Homo sapiens [6]): > 30; Ratio Ki (Homo sapiens [7]): > 30
21 | NC1=Nc2cccc(Cl)c2CN1 [listing 2 of 2 here] | 1700 nM | 3590 nM | 658 nM | 793 nM | 99 nM | Ki [10]: 1160 nM; Ki [11]: 1050 nM; Ki [12]: > 10000 nM
22 | CN1Cc2ccccc2N=C1N |  |  |  |  | > 10000 nM | 
23 | CC1NC(N)=Nc2ccccc21 (stereo not given) |  |  |  |  | 38 nM | 
24 | CC1NC(N)=Nc2c(Cl)ccc(Cl)c21 (stereo not given) | 91 nM | 966 nM | 74 nM | 2.4 nM | 6.5 nM | Ratio Ki (Homo sapiens [5]): > 30; Ratio Ki (Homo sapiens [6]): > 30; Ratio Ki (Homo sapiens [7]): > 30
25 | CC(C)Oc1cccc2c1N=C(N)NC2C (stereo not given) | 265 nM | 70 nM | 488 nM | 1 nM |  | Ratio Ki (Homo sapiens [13]): 7; Ratio Ki (Homo sapiens [5]): > 30; Ratio Ki (Homo sapiens [6]): > 30; Ratio Ki (Homo sapiens [7]): > 30
26 | Cc1cccc2c1CNC(N)=N2 |  |  |  |  | 145 nM | 
27 | CCCC1NC(N)=Nc2ccccc21 (stereo not given) |  |  |  |  | 805 nM | 
28 | CCC1NC(N)=Nc2ccccc21 (stereo not given) |  |  |  |  | 24 nM | 
29 | CC1NC(N)=Nc2cccc(Cl)c21 (stereo not given) | 192 nM | 1270 nM | 152 nM | 15.9 nM |  | fraction unbound [14]: 0.16; Kb [8]: 3.02 nM; Ki (Histamine H1 receptor): 1100 nM; inhibition [15]: > 60%; IC50 [16]: > 400 nM; IC50 [17]: > 400 nM; inhibition [18]: > 60%
30 | CCC1NC(N)=Nc2cccc(Cl)c21 (stereo not given) | 1080 nM | > 10000 nM | 380 nM | 97.4 nM | 84.4 nM | 
31 | CNC1=Nc2c(OC(C)C)cccc2C(C)N1 (stereo not given) | 669 nM | 160 nM | 970 nM | 2.4 nM |  | Ratio Ki (Homo sapiens [13]): 7; Ratio Ki (Homo sapiens [5]): > 30; Ratio Ki (Homo sapiens [6]): > 30; Ratio Ki (Homo sapiens [7]): > 30
32 | NC1=Nc2ccc(F)cc2CN1 |  |  |  |  | 911 nM | 
33 | CN(C)C1=Nc2ccccc2CN1 |  |  |  |  | 2800 nM | 
34 | NC1=Nc2cccc(F)c2CN1 |  |  |  |  | 550 nM | 
35 | Cc1ccc2c(c1)CNC(N)=N2 |  |  |  |  | 882 nM | 
36 | COc1cccc2c1N=C(N)NC2C (stereo not given) | 32 nM | 446 nM | 556 nM | 8.2 nM |  | Ratio Ki (Homo sapiens [5]): > 30; Ratio Ki (Homo sapiens [6]): > 30; Ratio Ki (Homo sapiens [7]): > 30
